# Measured values reported in US20050288309A1, “Fungicidal mixtures” (priority 2002, published 2005).
# Test system: Plasmopara viticola
# Experiment: Activity against Peronospora of grapevines caused by Plasmopara viticola (protective spray test on potted vines)
# Assay type: in vivo, cultivar Müller-Thurgau
# Conditions: individual active compound, untreated control 70% infection
# Experimental: The active compounds, separately or jointly, were prepared as a 10% emulsion in a mixture of 63% by weight of cyclohexanone and 27% by weight of emulsifier and diluted with water to the desired concentration.
# Evaluation was carried out by determining the infected leaf areas in percent. These percentages were converted into efficacies. The efficacy (E) is calculated as follows using Abbot's formula: E=(1α/β)·100 • α corresponds to the fungicidal infection of the treated plants in % and • β corresponds to the fungicidal infection of the untreated (control) plants in %
# An efficacy of 0 means that the infection level of the treated plants corresponds to that of the untreated control plants; an efficacy of 100 means that the treated plants were not infected.
# The expected efficacies of the mixtures of active compounds are determined using Colby's formula [R. S. Colby, Weeds 15, 20-22 (1967)] and compared with the observed efficacies.
# Colby's formula: E=x+y−x·y/100 • E expected efficacy, expressed in % of the untreated control, when using the mixture of the active compounds A and B at the concentrations a and b • x efficacy, expressed in % of the untreated control, when using active compound A at the concentration a • y efficacy, expressed in % of the untreated control, when using active compound B at the concentration b
# Leaves of potted vines of the cultivar “Müller-Thurgau” were sprayed to runoff point with an aqueous suspension having the concentration of active compound stated below. The suspension or emulsion was prepared from a stock solution comprising 10% of active compound in a mixture consisting of 70% of cyclohexanone, 20% of wetting agent and 10% of emulsifier. The next day, the undersides of the leaves were inoculated with an aqueous zoospore suspension of Plasmopara viticola. The grapevines were then initially placed in a water-vapor-saturated chamber at 24° C. for 48 hours and then in a greenhouse at 20-30° C. for 5 days. After this period of time, the plants were again placed in a humid chamber for 16 hours to promote sporangiophore eruption. The extent of the development of the disease on the undersides of the leaves was then determined visually.
Compound,Efficacy in % of the untreated control (0.25 ppm in the spray liquor),Efficacy in % of the untreated control (1 ppm in the spray liquor),Efficacy in % of the untreated control (4 ppm in the spray liquor)
"CC1CCN(c2c(-c3c(F)cc(F)cc3F)c(Cl)nc3ncnn23)CC1 [I, 5-chloro-7-(4-methylpiperidin-1-yl)-6-(2,4,6-trifluorophenyl)-[1,2,4]triazolo[1,5-a]-pyrimidine]",0%,0%,29%
"COC(=O)N(OC)c1ccccc1COc1ccn(-c2ccc(Cl)cc2)n1 [II-6, pyraclostrobin, reference compound]",–,29%,–
